Source: patent US20230295201A1 (Gilead Sciences, Inc., priority 2020, published 2023)
Read-outs that look alike come from different tables or passages of the source.

Experiments:
DENV2 replicon = assay: DENV-2 Huh-7 Rep EC50 (replicon luminescence); assay type: cell-based; details: Dengue virus, DENV2, Huh-7, 48 h, read-out: DENV-2 Huh-7 Rep EC50
In short: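 Huh-7 cells carrying a DENV2 replicon, 5,000 cells/well, were incubated with dosed compounds for 48 h at 37° C. EnduRen live-cell substrate was added 1.5 h before luminescence reading. EC50 came from dose-response against DMSO-only wells.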

RSV A2 = assay: RSV NHBE EC50 (RSV A2 antiviral assay in normal human bronchial epithelial cells); assay type: cell-based; details: human respiratory syncytial virus, NHBE, 96 h, read-out: RSV NHBE EC50
HRV16 = HRV16 HELA EC50 (cytopathic effect in H1-HeLa cells); assay type: cell-based; details: 96 h, read-out: HRV16 HELA EC50
In short: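 H1-HeLa cells seeded one day before, given 3-fold serial compound dilutions in triplicate just prior to infection with pre-titrated virus. Incubated 96 h at 33 °C/5% CO2; protection from cytopathic effect read as viability by CellTiter-Glo luminescence, normalised to infected untreated (0%) and uninfected (100%) controls.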

[1] = HEp-2 CC50 (cytotoxicity, Cell-Titer Glo); assay type: cell-based; details: human; uninfected HEp-2 cells, 4-5 days
Method: The same protocol as for the determination of antiviral activity is used for the measurement of compound cytotoxicity except that the cells are not infected with RSV. Instead, an uninfected cell mixture at the same density is added at 20 ul/well to plates containing prediluted compounds, also at 100 nL/sample. Assay plates are then incubated for 4 days followed by a cell viability test using the same CellTiter Glo reagent addition and measurement of luminescent readouts.

RSV strain A2 = assay: RSV HEp-2 EC50 (infectious cytopathic cell protection assay); assay type: cell-based; details: human respiratory syncytial virus, HEp-2, 96 h, read-out: RSV HEp-2 EC50
In short: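 HEp-2 cells mixed with titered RSV A2 at 50,000 cells/ml were added to plates holding 3-fold serial compound dilutions in DMSO, then incubated 4 days at 37° C. Cytoprotection was read as cell viability by CellTiter-Glo luminescence and converted to percent inhibition against 0% and 100% inhibition controls.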

in vitro [2] = details: human
Method: (§1) HEp-2 (1.5×10^3 cells/well) and MT-4 (2×10^3 cells/well) cells were plated in 384-well plates and incubated with the appropriate medium containing 3-fold serially diluted compound ranging from 15 nM to 100,000 nM. Cells were cultured for 4-5 days at 37° C. Following the incubation, the cells were allowed to equilibrate to 25° C., and cell viability was determined by adding Cell-Titer Glo viability reagent. The mixture was incubated for 10 min, and the luminescence signal was quantified using an Envision plate reader. Untreated cell and cells treated at 2 μM puromycin (Sigma, St. Louis, MO) serve as 100% and 0% cell viability control, respectively.

in vitro [3] = details: human; remark: listed apart in the source
[4] = MT4 CC50 (cytotoxicity, Cell-Titer Glo); details: human
Method: as §1

HELA CC50 (cytotoxicity) = details: human, HeLa cells

Row | SMILES | EC50 (DENV2 replicon; Huh-7 replicon cells, 48 hours) | EC50 (RSV A2; NHBE cells, RSV A2, 4 days) | EC50 (HRV16; H1-HeLa cells, 33° C.) | CC50 [1] | EC50 (RSV strain A2; HEp-2 cells, RSV A2, 4 days) | CC50 (in vitro [2]) | CC50 (in vitro [3]) | CC50 [4] | EC50 (DENV2 replicon) | CC50 (HELA CC50 (cytotoxicity)) | EC50 (RSV A2) | EC50 (HRV16) | EC50 (RSV strain A2)
1 | CC(C)C(=O)O[C@H]1[C@H](c2ccc3c(N)ncnn23)O[C@](C#N)(CO[P@@](=O)(N[C@@H](C)C(=O)OC2CCCCC2)Oc2ccccc2)[C@H]1O (single isomer, unassigned) [Example 205] | 6100 nM | 27 nM | 417 nM | 58600 nM | 101 nM | – | – | – | – | – | – | – | –
2 | CC(C)C(=O)O[C@H]1[C@@H](O)[C@H](c2ccc3c(N)ncnn23)O[C@]1(C#N)CO[P@@](=O)(N[C@@H](C)C(=O)OC1CCCCC1)Oc1ccccc1 (single isomer, unassigned) [Example 206] | – | 62 nM | – | 55200 nM | 85 nM | 16600 nM | – | – | – | – | – | – | –
3 | CC(C)OC(=O)[C@H](C)N[P@](=O)(OC[C@@]1(C#N)O[C@@H](c2ccc3c(N)ncnn23)[C@H](OC(=O)C(C)(C)C)[C@@H]1O)Oc1ccccc1 (single isomer, unassigned) [Example 238] | 9710 nM | 41 nM | 731 nM | > 50000 nM | 91 nM | 45000 nM | > 50000 nM | – | – | – | – | – | –
4 | CC(C)OC(=O)[C@H](C)N[P@](=O)(OC[C@@]1(C#N)O[C@@H](c2ccc3c(N)ncnn23)[C@H](O)[C@@H]1OC(=O)C(C)(C)C)Oc1ccccc1 (single isomer, unassigned) [Example 239] | 25400 nM | 54 nM | 1120 nM | > 50000 nM | 148 nM | > 50000 nM | > 50000 nM | – | – | – | – | – | –
5 | CC(C)OC(=O)[C@H](C)N[P@](=O)(OC[C@@]1(C#N)O[C@@H](c2ccc3c(N)ncnn23)[C@H](OC(=O)C(C)C)[C@@H]1O)Oc1ccccc1 (single isomer, unassigned) [Example 240] | 10600 nM | 190 nM | 1310 nM | > 50000 nM | 166 nM | > 50000 nM | > 50000 nM | – | – | – | – | – | –
6 | CC(C)OC(=O)[C@H](C)N[P@](=O)(OC[C@@]1(C#N)O[C@@H](c2ccc3c(N)ncnn23)[C@H](O)[C@@H]1OC(=O)C(C)C)Oc1ccccc1 (single isomer, unassigned) [Example 241] | 15500 nM | 190 nM | – | > 50000 nM | 293 nM | > 50000 nM | – | – | – | – | – | – | –
7 | CCOC(=O)c1ccccc1OP1(=O)OC[C@@]2(C#N)O[C@@H](c3ccc4c(N)ncnn34)[C@H](OC(=O)CC)[C@@H]2O1 (stereo partly drawn) [Example 230] | – | – | – | > 50000 nM | – | – | – | > 50000 nM | > 50000 nM | > 50000 nM | > 5000 nM | 11500 nM | 1650 nM
8 | CCOC(=O)[C@H](C)N[P@](=O)(OC[C@@]1(C#N)O[C@@H](c2ccc3c(N)ncnn23)[C@@H]2OC(OCC)O[C@@H]21)Oc1ccccc1 (stereo partly drawn) [Example 233, ethyl ((S)-(((3aS,4R,6S,6aS)-6-(4-aminopyrrolo[2,1-f][1,2,4]triazin-7-yl)-4-cyano-2-ethoxytetrahydrofuro[3,4-d][1,3]dioxol-4-yl)methoxy)(phenoxy)phosphoryl)-L-alaninate] | 35800 nM | > 4640 nM | 3350 nM | > 50000 nM | 1750 nM | – | – | – | – | – | – | – | –
9 | COC(=O)[C@H](C)N[P@](=O)(OC[C@@]1(C#N)O[C@@H](c2ccc3c(N)ncnn23)[C@H](OC(=O)C(C)C)[C@@H]1O)Oc1ccccc1 [Example 250, (2S,3R,4S,5R)-2-(4-aminopyrrolo[2,1-f][1,2,4]triazin-7-yl)-5-cyano-4-hydroxy-5-((((S)—(((S)-1-methoxy-1-oxopropan-2-yl)amino)(phenoxy)phosphoryl)oxy)methyl)tetrahydrofuran-3-yl isobutyrate] | – | 51 nM | 1180 nM | > 50000 nM | 69 nM | – | – | – | – | – | – | – | –
